Reference: US4345938A, “Herbicidal 2-haloacetanilides” (Monsanto Company, priority 1980, dated 1982)
Where two headings read alike, the source gives them in different places.

Legend:
Echinochloa crus-galli [1] = assay: Field transplant rice test, applied 9 DAT, EC; assay type: in vivo; conditions: Echinochloa crus-galli, 216 h, read-out: Percent Inhibition, EC; for inhibition at 375 g/ha: 0.375 Kg/Ha; for inhibition at 750 g/ha: 0.75 Kg/Ha; for inhibition at 1500 g/ha: 1.5 Kg/Ha; for inhibition at 3000 g/ha: 3.0 Kg/Ha
Procedure, shortened: (§1)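 Field test in transplanted rice, herbicides applied as granules (2.5% or 5.0% w/w active) 9 days after transplant at 3.0 down to 0.375 kg/ha. Weed control observed weekly from 3 to 7 weeks after transplant.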

Rice [2] = assay: Greenhouse transplant rice test, rice injury; assay type: in vivo, Rice (Bluebelle); conditions: Oryza sativa, about 3 WAT, read-out: Percent Inhibition, Rice
Excerpt: (§2) The test procedure used in this greenhouse test is as follows: Ray silt loam top soil containing about 0.05% by weight of krillium and sifted through a […] screen is fumigated about 5-10 days prior to use. Pots are then filled with said Ray silt loam soil to a level to allow for a 1 in. (2.54 cm) flooding depth. Rice plants (Bluebelle) of 2 to 3 weeks age are transplanted to the pots and bulbs or seeds of the test weeds also planted in the pots. The pots are then flooded and the test chemical applied to the surface of the flood water. The flood water is reduced to allow for germination of the Echinochloa crus-galli (barnyardgrass) seed and subsequently reflooded and maintained in that condition. Observations of percent inhibition using a scale of 0-100% are made about 3 weeks after transplant (WAT).
(§3) The test data in Table III for all compounds was obtained under identical test conditions. The weeds used in the tests herein have the following abbreviations in the tables: Echinochloa crus-galli (EC), Monochloria vaginalis (MV), Cyperus Serotinus (CS), Eleocharis Kuroguwai (EK) and Sagittaria trifolia (ST).

Cyperus serotinus = assay: Greenhouse transplant rice test, CS; assay type: in vivo; conditions: about 3 WAT, read-out: Percent Inhibition, CS
Excerpt: as §2, §3

Monochoria vaginalis = assay: Field transplant rice test, applied 9 DAT, MV; assay type: in vivo; conditions: for inhibition at 375 g/ha / inhibition at 750 g/ha / inhibition at 1500 g/ha / inhibition at 3000 g/ha: Pontederia vaginalis, 216 h, read-out: Percent Inhibition, MV; for inhibition at 375 g/ha: 0.375 Kg/Ha; for inhibition at 750 g/ha: 0.75 Kg/Ha; for inhibition at 1500 g/ha: 1.5 Kg/Ha; for inhibition at 3000 g/ha: 3.0 Kg/Ha
Procedure, shortened: as §1

Echinochloa crus-galli [3] = assay: Greenhouse transplant rice test, EC; assay type: in vivo; conditions: about 3 WAT, read-out: Percent Inhibition, EC
Excerpt: as §2, §3

Sagittaria trifolia = assay: Field transplant rice test, applied 9 DAT, ST; assay type: in vivo; conditions: 216 h, read-out: Percent Inhibition, ST; for inhibition at 375 g/ha: 0.375 Kg/Ha; for inhibition at 750 g/ha: 0.75 Kg/Ha; for inhibition at 1500 g/ha: 1.5 Kg/Ha; for inhibition at 3000 g/ha: 3.0 Kg/Ha
Procedure, shortened: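 Field test in transplant rice: herbicides applied 9 DAT as granules (2.5% or 5.0% by weight active) at 3.0 down to 0.375 kg/ha. Weed control observed weekly from 3 to 7 WAT.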

Rice [4] = assay: Field transplant rice test, applied 9 DAT, rice injury; assay type: in vivo; conditions: for inhibition at 375 g/ha / inhibition at 750 g/ha / inhibition at 1500 g/ha / inhibition at 3000 g/ha: Oryza sativa, 216 h, read-out: Percent Inhibition, Rice; for inhibition at 375 g/ha: 0.375 Kg/Ha; for inhibition at 750 g/ha: 0.75 Kg/Ha; for inhibition at 1500 g/ha: 1.5 Kg/Ha; for inhibition at 3000 g/ha: 3.0 Kg/Ha
Procedure, shortened: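 Field transplant rice; herbicides applied as granules (2.5% by weight active, 5.0% for one prior-art comparator) at 9 days after transplant. Rates from 3.0 kg/ha (2.67 lb/A) down to 0.375 kg/ha (0.34 lb/A). Crop injury observed weekly from 3 to 7 weeks after transplant.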

CCCCOc1cccc(CC)c1N(C)C(=O)CCl [Example 1, N-methyl-2'-n-butoxy-6'-ethyl-2-chloroacetanilide]
inhibition at 375 g/ha (Echinochloa crus-galli [1]; 3 WAT): 90%
inhibition at 375 g/ha (Echinochloa crus-galli [1]; 5 WAT): 88%
inhibition at 375 g/ha (Echinochloa crus-galli [1]; 7 WAT): 78%
inhibition at 750 g/ha (Echinochloa crus-galli [1]; 3 WAT): 100%
inhibition at 750 g/ha (Echinochloa crus-galli [1]; 5 WAT): 100%
inhibition at 750 g/ha (Echinochloa crus-galli [1]; 7 WAT): 100%
inhibition at 1500 g/ha (Echinochloa crus-galli [1]; 3 WAT): 100%
inhibition at 1500 g/ha (Echinochloa crus-galli [1]; 5 WAT): 98%
inhibition at 1500 g/ha (Echinochloa crus-galli [1]; 7 WAT): 100%
inhibition at 3000 g/ha (Echinochloa crus-galli [1]; 3 WAT): 100%
inhibition at 3000 g/ha (Echinochloa crus-galli [1]; 5 WAT): 100%
inhibition at 3000 g/ha (Echinochloa crus-galli [1]; 7 WAT): 100%
inhibition at 280 g/ha (Rice [2]; 0.28 Kg/Ha): 5%
inhibition at 560 g/ha (Rice [2]; 0.56 Kg/Ha): 0%
inhibition at 1120 g/ha (Rice [2]; 1.12 Kg/Ha): 15%
inhibition at 2240 g/ha (Rice [2]; 2.24 Kg/Ha): 20%
inhibition at 280 g/ha (Cyperus serotinus; 0.28 Kg/Ha): 85%
inhibition at 560 g/ha (Cyperus serotinus; 0.56 Kg/Ha): 100%
inhibition at 1120 g/ha (Cyperus serotinus; 1.12 Kg/Ha): 100%
inhibition at 2240 g/ha (Cyperus serotinus; 2.24 Kg/Ha): 100%
inhibition at 375 g/ha (Monochoria vaginalis; 3 WAT): 100%
inhibition at 375 g/ha (Monochoria vaginalis; 5 WAT): 100%
inhibition at 375 g/ha (Monochoria vaginalis; 7 WAT): 100%
inhibition at 750 g/ha (Monochoria vaginalis; 3 WAT): 100%
inhibition at 750 g/ha (Monochoria vaginalis; 5 WAT): 100%
inhibition at 750 g/ha (Monochoria vaginalis; 7 WAT): 100%
inhibition at 1500 g/ha (Monochoria vaginalis; 3 WAT): 100%
inhibition at 1500 g/ha (Monochoria vaginalis; 5 WAT): 100%
inhibition at 1500 g/ha (Monochoria vaginalis; 7 WAT): 100%
inhibition at 3000 g/ha (Monochoria vaginalis; 3 WAT): 100%
inhibition at 3000 g/ha (Monochoria vaginalis; 5 WAT): 100%
inhibition at 3000 g/ha (Monochoria vaginalis; 7 WAT): 100%
selectivity factor (GR15/GR85), MV in transplant rice (Monochoria vaginalis; between 3 WAT and 7 WAT): 16
inhibition at 280 g/ha (Echinochloa crus-galli [3]; 0.28 Kg/Ha): 100%
inhibition at 560 g/ha (Echinochloa crus-galli [3]; 0.56 Kg/Ha): 100%
inhibition at 1120 g/ha (Echinochloa crus-galli [3]; 1.12 Kg/Ha): 100%
inhibition at 2240 g/ha (Echinochloa crus-galli [3]; 2.24 Kg/Ha): 100%
inhibition at 375 g/ha (Sagittaria trifolia; 3 WAT): 50%
inhibition at 375 g/ha (Sagittaria trifolia; 5 WAT): 23%
inhibition at 375 g/ha (Sagittaria trifolia; 7 WAT): 18%
inhibition at 750 g/ha (Sagittaria trifolia; 3 WAT): 43%
inhibition at 750 g/ha (Sagittaria trifolia; 5 WAT): 33%
inhibition at 750 g/ha (Sagittaria trifolia; 7 WAT): 13%
inhibition at 1500 g/ha (Sagittaria trifolia; 3 WAT): 40%
inhibition at 1500 g/ha (Sagittaria trifolia; 5 WAT): 13%
inhibition at 1500 g/ha (Sagittaria trifolia; 7 WAT): 7%
inhibition at 3000 g/ha (Sagittaria trifolia; 3 WAT): 72%
inhibition at 3000 g/ha (Sagittaria trifolia; 5 WAT): 43%
inhibition at 3000 g/ha (Sagittaria trifolia; 7 WAT): 38%
inhibition at 375 g/ha (Rice [4]; 3 WAT): 13%
inhibition at 375 g/ha (Rice [4]; 5 WAT): 7%
inhibition at 375 g/ha (Rice [4]; 7 WAT): 7%
inhibition at 750 g/ha (Rice [4]; 3 WAT): 7%
inhibition at 750 g/ha (Rice [4]; 5 WAT): 2%
inhibition at 750 g/ha (Rice [4]; 7 WAT): 0%
inhibition at 1500 g/ha (Rice [4]; 3 WAT): 10%
inhibition at 1500 g/ha (Rice [4]; 5 WAT): 7%
inhibition at 1500 g/ha (Rice [4]; 7 WAT): 5%
inhibition at 3000 g/ha (Rice [4]; 3 WAT): 15%
inhibition at 3000 g/ha (Rice [4]; 5 WAT): 15%
inhibition at 3000 g/ha (Rice [4]; 7 WAT): 10%
rate at which safety in rice is maintained (Rice [4]; maximum test rate): ≥ 3.0 kg/ha
